Test results reported in patent EP4624471A1, “PKMYT1 INHIBITOR, PREPARATION METHOD THEREFOR, AND PHARMACEUTICAL COMPOSITION AND USE THEREOF” (Shanghai Qilu Pharmaceutical Research and Development …, priority 2022, dated 2024).
Like-named read-outs stand apart in the source and are kept apart here.

Molecular target: T1, PKMYT1 enzyme (Homo sapiens, UniProt Q99640)
T1 construct: purchased Thermo Scientific A33387
T1 sequence (Q99640 1-499): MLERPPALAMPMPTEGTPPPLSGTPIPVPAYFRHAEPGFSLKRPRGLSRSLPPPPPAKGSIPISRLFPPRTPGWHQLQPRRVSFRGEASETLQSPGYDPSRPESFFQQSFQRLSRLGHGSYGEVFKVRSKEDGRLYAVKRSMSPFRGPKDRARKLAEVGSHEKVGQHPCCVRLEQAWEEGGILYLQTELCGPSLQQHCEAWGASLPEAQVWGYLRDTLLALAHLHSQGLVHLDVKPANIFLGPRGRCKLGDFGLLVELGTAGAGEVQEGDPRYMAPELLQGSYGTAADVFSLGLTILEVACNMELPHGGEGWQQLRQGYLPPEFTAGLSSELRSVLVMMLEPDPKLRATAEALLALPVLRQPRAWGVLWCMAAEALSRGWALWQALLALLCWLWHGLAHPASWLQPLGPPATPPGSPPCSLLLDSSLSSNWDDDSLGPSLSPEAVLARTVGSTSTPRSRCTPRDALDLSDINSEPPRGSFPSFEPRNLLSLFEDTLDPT
Experiment: PKMYT1 enzyme inhibition activity, ADP-GLO method
Format: biochemical

[1] = read-out: ADP-GLO IC50; PKMYT1 enzyme 10 nM, ATP 5 µM, 37°C 90 minutes
[2] = PKMYT1 enzyme 10 nM, ATP 5 µM, 37°C 90 minutes; read-out: ADP-GLO IC50

Structure (SMILES) | IC50 [1] [nM] | IC50 [2] [nM]
Cc1nc(C)c2c(C(N)=O)c(N)n(-c3c(C)ccc(O)c3C)c2n1 (atropisomer, axis not shown) [Example 19.2] | 9.55 | –
Cc1cc2c(C(N)=O)c(N)n(-c3c(C)c(O)cc(F)c3C)c2nc1C (atropisomer, axis not shown) [Example 22] | – | 85.5
Cc1ccc(O)c(C)c1-n1c(N)c(C(N)=O)c2cnc(CC(C)C)nc21 (atropisomer, axis not shown) [Example 57.1] | 15.1 | –
Cc1cc(F)c(O)c(C)c1-n1c(N)c(C(N)=O)c2cc(Cl)c(C)nc21 (atropisomer, axis not shown) [Example 60.2] | – | 1.88
CCc1nc(C)nc2c1c(C(N)=O)c(N)n2-c1c(C)ccc(O)c1C (atropisomer, axis not shown) [Example 66.1] | – | 16.5
Cc1ncc2c(C(N)=O)c(N)n(-c3c(C)c(O)cc(F)c3C)c2c1F (atropisomer, axis not shown) [Example 71.1] | – | 4.29
Cc1c(O)cc(F)c(C)c1-n1c(N)c(C(N)=O)c2cc(C(C)C)cnc21 (atropisomer, axis not shown) [Example 113.1] | – | 93.1
CCc1cc2c(C(N)=O)c(N)n(-c3c(C)cc(F)c(O)c3C)c2nc1C (atropisomer, axis not shown) [Example 143] | – | 18.2
Cc1cc(F)c(O)c(C)c1-n1c(N)c(C(N)=O)c2cc(C3CC3)cnc21 (atropisomer, axis not shown) [Example 144] | – | 5.74
Cc1cc(F)c(O)c(C)c1-n1c(N)c(C(N)=O)c2cc(C(F)(F)F)cnc21 (atropisomer, axis not shown) [Example 154.2] | – | 5.1
COc1cc2c(C(N)=O)c(N)n(-c3c(C)cc(F)c(O)c3C)c2nc1C (atropisomer, axis not shown) [Example 158.1] | – | 7.5
Cc1cc(F)c(O)c(C)c1-n1c(N)c(C(N)=O)c2cc(N3CCCC3)c(C)nc21 (atropisomer, axis not shown) [Example 162.1] | – | 9.1
Cc1cc(F)c(O)c(C)c1-n1c(N)c(C(N)=O)c2cc(C3CCOCC3)c(C)nc21 (atropisomer, axis not shown) [Example 163.1] | – | 5.7
Cc1cc(F)c(O)c(C)c1-n1c(N)c(C(N)=O)c2cc(C3CCOCC3)c(C)nc21 (atropisomer, axis not shown) [Example 163] | – | 23.4
Cc1cc(F)c(O)c(C)c1-n1c(N)c(C(N)=O)c2cc(CC(C)C)c(C)nc21 (atropisomer, axis not shown) [Example 166.2] | – | 3.78
Cc1cc(F)c(O)c(C)c1-n1c(N)c(C(N)=O)c2cc(C(C)(C)O)c(C)nc21 (atropisomer, axis not shown) [Example 172.1] | – | 4.6
Cc1cc(F)c(O)c(C)c1-n1c(N)c(C(N)=O)c2cc(C3=CCOCC3)c(C)nc21 (atropisomer, axis not shown) [Example 175] | – | 4.8
Cc1cc(F)c(O)c(C)c1-n1c(N)c(C(N)=O)c2cc3c(nc21)CCCC3 (atropisomer, axis not shown) [Example 177.2] | – | 8.15
Cc1cc(F)c(O)c(C)c1-n1c(N)c(C(N)=O)c2c3c(cnc21)CCC3 (atropisomer, axis not shown) [Example 186.2] | – | 3.91
Cc1ccc(O)c(C)c1-n1c(N)c(C(N)=O)c2cc3c(nc21)CCO3 (atropisomer, axis not shown) [Example 190.2] | 2.22 | –
[2H]C([2H])([2H])c1nc2c(cc1C(F)(F)F)c(C(N)=O)c(N)n2-c1c(C)cc(F)c(O)c1C (atropisomer, axis not shown) [Example 194.1] | – | 5.3
[2H]C([2H])([2H])c1c(O)c(F)cc(C)c1-n1c(N)c(C(N)=O)c2cc(C(F)(F)F)c(C)nc21 (atropisomer, axis not shown) [Example 195.1] | – | 2.8
Cc1cc(F)c(O)c(C)c1-n1c(N)c(C(N)=O)c2cc(Cl)c(C)nc21 (racemic) [Example 60] | – | 4.31
Cc1nc(C2CC2)c2c(C(N)=O)c(N)n(-c3c(C)ccc(O)c3C)c2n1 (racemic) [Example 62] | – | 16.9
Cc1ncc2c(C(N)=O)c(N)n(-c3c(C)c(O)cc(F)c3C)c2n1 (racemic) [Example 63] | – | 5.14
CCc1nc(C)nc2c1c(C(N)=O)c(N)n2-c1c(C)ccc(O)c1C (racemic) [Example 66] | – | 22.5
Cc1ncc2c(C(N)=O)c(N)n(-c3c(C)c(O)cc(F)c3C)c2c1F (racemic) [Example 71] | – | 7.99

Structure (SMILES) | IC50 [1] [nM] | IC50 [2] [nM]
Cc1cc(F)c(O)c(C)c1-n1c(N)c(C(N)=O)c2cc(C(F)(F)F)cnc21 (racemic) [Example 154] | – | 13.9
COc1cc2c(C(N)=O)c(N)n(-c3c(C)cc(F)c(O)c3C)c2nc1C (racemic) [Example 158] | – | 8.18
Cc1cc(F)c(O)c(C)c1-n1c(N)c(C(N)=O)c2cc(N3CCCC3)c(C)nc21 (racemic) [Example 162] | – | 14.5
Cc1cc(F)c(O)c(C)c1-n1c(N)c(C(N)=O)c2cc(CC(C)C)c(C)nc21 (racemic) [Example 166] | – | 8.4
Cc1cc(F)c(O)c(C)c1-n1c(N)c(C(N)=O)c2cc(N(C)C)c(C)nc21 (racemic) [Example 169] | – | 26.2
Cc1cc(F)c(O)c(C)c1-n1c(N)c(C(N)=O)c2cc(C(C)C)cnc21 (racemic) [Example 170] | – | 18.1
Cc1cc(F)c(O)c(C)c1-n1c(N)c(C(N)=O)c2cc(C(C)(C)O)c(C)nc21 (racemic) [Example 172] | – | 16.4
Cc1cc(F)c(O)c(C)c1-n1c(N)c(C(N)=O)c2cc(N3CCC3)c(C)nc21 (racemic) [Example 173] | – | 7.68
Cc1cc(F)c(O)c(C)c1-n1c(N)c(C(N)=O)c2c3c(c(C)nc21)CCC3 (racemic) [Example 176] | – | 9.81
Cc1cc(F)c(O)c(C)c1-n1c(N)c(C(N)=O)c2cc3c(nc21)CCCC3 (racemic) [Example 177] | – | 34.7
Cc1cc(F)c(O)c(C)c1-n1c(N)c(C(N)=O)c2c3c(cnc21)CCC3 (racemic) [Example 186] | – | 7.41
Cc1ccc(O)c(C)c1-n1c(N)c(C(N)=O)c2cc3c(nc21)OCCO3 (racemic) [Example 188] | – | 10.5
Cc1ccc(O)c(C)c1-n1c(N)c(C(N)=O)c2c3cnccc3c(C)cc21 (racemic) [Example 189, 8-amino-7-(3-hydroxy-2,6-dimethylphenyl)-S-methyl-7H-pyrrolo[2,3-h]isoquinoline-9-carboxamide] | – | 5
Cc1ccc(O)c(C)c1-n1c(N)c(C(N)=O)c2cc3c(nc21)CCO3 (racemic) [Example 190] | 4.93 | –
[2H]C([2H])([2H])c1nc2c(cc1C(F)(F)F)c(C(N)=O)c(N)n2-c1c(C)cc(F)c(O)c1C (racemic) [Example 194] | – | 6.36
[2H]C([2H])([2H])c1c(O)c(F)cc(C)c1-n1c(N)c(C(N)=O)c2cc(C(F)(F)F)c(C)nc21 (racemic) [Example 195] | – | 4.6
C=Cc1cc2c(C(N)=O)c(N)n(-c3c(C)cc(F)c(O)c3C)c2nc1C (single isomer, unassigned) [Example 142.1] | – | 10.1
CCc1cc2c(C(N)=O)c(N)n(-c3c(C)cc(F)c(O)c3C)c2nc1C (single isomer, unassigned) [Example 143.1] | – | 20
Cc1cc(F)c(O)c(C)c1-n1c(N)c(C(N)=O)c2cc(C3CC3)cnc21 (single isomer, unassigned) [Example 144.1] | – | 2.08
Cc1ccc(O)c(C)c1-n1c(N)c(C(N)=O)c2cnc(C(F)(F)F)nc21 [Example 4, 6-Amino-7-(3-hydroxy-2,6-dimethylphenyl)-2-(trifluoromethyl)-7H-pyrrolo[2,3-d]pyrimidine-5-carboxamide] | – | 25.4
Cc1ccc(O)c(C)c1-n1c(N)c(C(N)=O)c2cnc(Cl)nc21 [Example 5, 6-Amino-2-chloro-7-(3-hydroxy-2,6-dimethylphenyl)-7H-pyrrolo[2,3-d]pyrimidine-5-carboxamide] | – | 8.01
C=Cc1ncc2c(C(N)=O)c(N)n(-c3c(C)ccc(O)c3C)c2n1 [Example 6, 6-Amino-7-(3-hydroxy-2,6-dimethylphenyl)-2-vinyl-7H-pyrrolo[2,3-d]pyrimidine-5-carboxamide] | – | 10.1
Cc1ccc(O)c(C)c1-n1c(N)c(C(N)=O)c2cnc(Br)nc21 [Example 7, 6-Amino-2-bromo-7-(3-hydroxy-2,6-dimethylphenyl)-7H-pyrrolo[2,3-d]pyrimidine-5-carboxamide] | – | 9.41
CCc1ncc2c(C(N)=O)c(N)n(-c3c(C)ccc(O)c3C)c2n1 [Example 8, 6-Amino-2-ethyl-7-(3-hydroxy-2,6-dimethylphenyl)-7H-pyrrolo[2,3-d]pyrimidine-5-carboxamide] | – | 10.5
Cc1ccc(O)c(C)c1-n1c(N)c(C(N)=O)c2cnc(C3=CCCCC3)nc21 [Example 9, 6-Amino-2-(cyclohex-1-en-1-yl)-7-(3-hydroxy-2,6-dimethylphenyl)-7H-pyrrolo[2,3-d]pyrimidine-5-carboxamide] | – | 9.05
Cc1ccc(O)c(C)c1-n1c(N)c(C(N)=O)c2cnc(C3CCCCC3)nc21 [Example 10, 6-Amino-2-cyclohexyl-7-(3-hydroxy-2,6-dimethylphenyl)-7H-pyrrolo[2,3-d]pyrimidine-5-carboxamide] | – | 13
